Values quoted from earlier work in US20250144059A1, “GUANIDINOACETIC ACID, ITS DERIVATES, COMPOSITIONS AND METHODS OF USE THEREOF” (priority 2023, published 2025).

Conditions: Merck Index 15th Edition 2013, item #4530

## N=C(N)NCC(=O)O [Number G10, guanidinoacetic acid]
  solubility in water: fairly soluble in water
